Values quoted from earlier work in patent US5593970A, “Heterocyclic anthracycline analogs” (priority 1994, dated 1997).

What was measured:
tumor = conditions: cited from earlier work
bacteria and fungi = conditions: cited from earlier work

Row | Compound | antitumor activity (tumor) | antibacterial and antifungal activity (bacteria and fungi)
1 | CC(=O)N1Cc2c(O)c3c(c(O)c2C(O[C@H]2C[C@H](NC(=O)C(F)(F)F)[C@H](O)[C@H](C)O2)C1)C(=O)c1ccccc1C3=O (stereo partly drawn) [N-(trifluoroacetyl)-4-demethoxy-9-azadaunorubicin] | no antitumor activity | –
2 | CC1OC2OC(=O)OC2C2=C1C(=O)c1c(O)cccc1C2=O (stereo not drawn) [kalafungin] | – | potent antibacterial as well as antifungal activity
3 | C[C@@H]1O[C@@H](CC(=O)O)CC2=C1C(=O)c1c(O)cccc1C2=O [nanaomycin A] | – | potent antibacterial as well as antifungal activity
